Measured values taken from ChEMBL document CHEMBL3045592, “Studies of O,O-dimethyl α-(2,4-dichlorophenoxyacetoxy)ethylphosphonate (HW02) as a new herbicide. 1. Synthesis and herbicidal activity of HW02 and analogues as novel inhibitors of pyruvate dehydrogenase complex” (J Agric Food Chem, 2011).
pIC50: −log10 of the molar value.

Key:
Brassica juncea = test: Post-emergence herbicidal activity against Brassica juncea assessed as growth inhibition at 450 ai g/ha after 20 days by green house test; type: functional
Digitaria sanguinalis [1] = test: Post-emergence herbicidal activity against Digitaria sanguinalis (hairy crabgrass) assessed as growth inhibition at 75 ai g/ha after 20 days by green house test; type: functional
Digitaria sanguinalis [2] = test: Pre-emergence herbicidal activity against Digitaria sanguinalis (hairy crabgrass) assessed as growth inhibition at 450 ai g/ha after 20 days by green house test; type: functional
Digitaria sanguinalis [3] = test: Pre-emergence herbicidal activity against Digitaria sanguinalis (hairy crabgrass) assessed as growth inhibition at 150 ai g/ha after 20 days by green house test; type: functional
Digitaria sanguinalis [4] = test: Pre-emergence herbicidal activity against Digitaria sanguinalis (hairy crabgrass) assessed as growth inhibition at 75 ai g/ha after 20 days by green house test; type: functional
Chenopodium album [5] = test: Post-emergence herbicidal activity against Chenopodium album assessed as growth inhibition at 450 ai g/ha after 20 days by green house test; type: functional
Chenopodium album [6] = test: Post-emergence herbicidal activity against Chenopodium album assessed as growth inhibition at 150 ai g/ha after 20 days by green house test; type: functional
Chenopodium album [7] = test: Post-emergence herbicidal activity against Chenopodium album assessed as growth inhibition at 75 ai g/ha after 20 days by green house test; type: functional
Chenopodium album [8] = test: Pre-emergence herbicidal activity against Chenopodium album assessed as growth inhibition at 450 ai g/ha after 20 days by green house test; type: functional
Chenopodium album [9] = test: Pre-emergence herbicidal activity against Chenopodium album assessed as growth inhibition at 150 ai g/ha after 20 days by green house test; type: functional
Chenopodium album [10] = test: Pre-emergence herbicidal activity against Chenopodium album assessed as growth inhibition at 75 ai g/ha after 20 days by green house test; type: functional
Amaranthus spinosus [11] = test: Post-emergence herbicidal activity against Amaranthus spinosus assessed as growth inhibition at 450 ai g/ha after 20 days by green house test; type: functional
Amaranthus spinosus [12] = test: Post-emergence herbicidal activity against Amaranthus spinosus assessed as growth inhibition at 150 ai g/ha after 20 days by green house test; type: functional
Amaranthus spinosus [13] = test: Post-emergence herbicidal activity against Amaranthus spinosus assessed as growth inhibition at 75 ai g/ha after 20 days by green house test; type: functional
[14] = molecular target: Pyruvate dehydrogenase complex (Vigna radiata var. radiata); test: Inhibition of PDHc in Vigna radiata var. radiata VC2778A shoot mitochondria assessed as decrease in rate of NADH formation using sodium pyruvate as substrate preincubated for 25 min before substrate addition measured after 1 min by spectrophotometric assay; type: protein-complex assay
Echinochloa crus-galli [15] = test: Post-emergence herbicidal activity against Echinochloa crus-galli (barnyard grass) assessed as growth inhibition at 450 ai g/ha after 20 days by green house test; type: functional
Abutilon theophrasti [16] = test: Post-emergence herbicidal activity against Abutilon theophrasti (velvetleaf) assessed as growth inhibition at 75 ai g/ha after 20 days by green house test; type: functional
Abutilon theophrasti [17] = test: Pre-emergence herbicidal activity against Abutilon theophrasti (velvetleaf) assessed as growth inhibition at 450 ai g/ha after 20 days by green house test; type: functional
Abutilon theophrasti [18] = test: Pre-emergence herbicidal activity against Abutilon theophrasti (velvetleaf) assessed as growth inhibition at 150 ai g/ha after 20 days by green house test; type: functional
Abutilon theophrasti [19] = test: Pre-emergence herbicidal activity against Abutilon theophrasti (velvetleaf) assessed as growth inhibition at 75 ai g/ha after 20 days by green house test; type: functional
Cucumis sativus [20] = test: Herbicidal activity against Cucumis sativus Jin 4 (cucumber) assessed as inhibition of stem growth after 3 days; type: functional, organism-based; conditions: Jin 4, 72 h
Medicago sativa [21] = test: Post-emergence herbicidal activity against Medicago sativa (alfalfa) assessed as growth inhibition at 1500 ai g/ha after 20 days by green house test; type: functional
Amaranthus retroflexus [22] = test: Post-emergence herbicidal activity against Amaranthus retroflexus assessed as growth inhibition at 1500 ai g/ha after 20 days by green house test; type: functional
[23] = system: Brassica rapa subsp. oleifera; test: Post-emergence herbicidal activity against Brassica rapa subsp. oleifera Si Yue Man assessed as growth inhibition at 1500 ai g/ha after 20 days by green house test; type: functional
Digitaria sanguinalis [24] = test: Post-emergence herbicidal activity against Digitaria sanguinalis (hairy crabgrass) assessed as growth inhibition at 1500 ai g/ha after 20 days by green house test; type: functional
Echinochloa crus-galli [25] = test: Post-emergence herbicidal activity against Echinochloa crus-galli (barnyard grass) assessed as growth inhibition at 1500 ai g/ha after 20 days by green house test; type: functional
Medicago sativa [26] = test: Pre-emergence herbicidal activity against Medicago sativa (alfalfa) assessed as growth inhibition at 1500 ai g/ha after 20 days by green house test; type: functional
Amaranthus retroflexus [27] = test: Pre-emergence herbicidal activity against Amaranthus retroflexus assessed as growth inhibition at 1500 ai g/ha after 20 days by green house test; type: functional
[28] = system: Brassica rapa subsp. oleifera; test: Pre-emergence herbicidal activity against Brassica rapa subsp. oleifera Si Yue Man assessed as growth inhibition at 1500 ai g/ha after 20 days by green house test; type: functional
Digitaria sanguinalis [29] = test: Pre-emergence herbicidal activity against Digitaria sanguinalis (hairy crabgrass) assessed as growth inhibition at 1500 ai g/ha after 20 days by green house test; type: functional
Echinochloa crus-galli [30] = test: Pre-emergence herbicidal activity against Echinochloa crus-galli (barnyard grass) assessed as growth inhibition at 1500 ai g/ha after 20 days by green house test; type: functional
Amaranthus spinosus [31] = test: Pre-emergence herbicidal activity against Amaranthus spinosus assessed as growth inhibition at 450 ai g/ha after 20 days by green house test; type: functional
Amaranthus spinosus [32] = test: Pre-emergence herbicidal activity against Amaranthus spinosus assessed as growth inhibition at 150 ai g/ha after 20 days by green house test; type: functional
Amaranthus spinosus [33] = test: Pre-emergence herbicidal activity against Amaranthus spinosus assessed as growth inhibition at 75 ai g/ha after 20 days by green house test; type: functional
[34] = Toxicity against Oryza sativa (rice) assessed as growth inhibition at 450 ai g/ha post-emergent application measured after 20 days by green house crop selectivity test; type: organism-based; conditions: in vivo, read-out: GI
Abutilon theophrasti [35] = test: Post-emergence herbicidal activity against Abutilon theophrasti (velvetleaf) assessed as growth inhibition at 450 ai g/ha after 20 days by green house test; type: functional
Amaranthus retroflexus [36] = test: Post-emergence herbicidal activity against Amaranthus retroflexus assessed as growth inhibition at 450 ai g/ha after 20 days by green house test; type: functional
Cucumis sativus [37] = test: Herbicidal activity against Cucumis sativus Jin 4 (cucumber) assessed as inhibition of root growth after 3 days; type: functional, organism-based; conditions: Jin 4, 72 h
Abutilon theophrasti [38] = test: Post-emergence herbicidal activity against Abutilon theophrasti (velvetleaf) assessed as growth inhibition at 150 ai g/ha after 20 days by green house test; type: functional
Setaria viridis [39] = test: Post-emergence herbicidal activity against Setaria viridis (green foxtail) assessed as growth inhibition at 450 ai g/ha after 20 days by green house test; type: functional
Setaria viridis [40] = test: Post-emergence herbicidal activity against Setaria viridis (green foxtail) assessed as growth inhibition at 150 ai g/ha after 20 days by green house test; type: functional
Setaria viridis [41] = test: Post-emergence herbicidal activity against Setaria viridis (green foxtail) assessed as growth inhibition at 75 ai g/ha after 20 days by green house test; type: functional
Setaria viridis [42] = test: Pre-emergence herbicidal activity against Setaria viridis (green foxtail) assessed as growth inhibition at 450 ai g/ha after 20 days by green house test; type: functional
Setaria viridis [43] = test: Pre-emergence herbicidal activity against Setaria viridis (green foxtail) assessed as growth inhibition at 150 ai g/ha after 20 days by green house test; type: functional
Setaria viridis [44] = test: Pre-emergence herbicidal activity against Setaria viridis (green foxtail) assessed as growth inhibition at 75 ai g/ha after 20 days by green house test; type: functional
Digitaria sanguinalis [45] = test: Post-emergence herbicidal activity against Digitaria sanguinalis (hairy crabgrass) assessed as growth inhibition at 450 ai g/ha after 20 days by green house test; type: functional
Digitaria sanguinalis [46] = test: Post-emergence herbicidal activity against Digitaria sanguinalis (hairy crabgrass) assessed as growth inhibition at 150 ai g/ha after 20 days by green house test; type: functional
Pisum sativum = test: Post-emergence herbicidal activity against Pisum sativum Zhongwan-2 (pea) assessed as growth inhibition at 450 ai g/ha after 20 days by green house test; conditions: Lathyrus oleraceus

SMILES: COP(=O)(COC(=O)COc1ccc(Cl)cc1Cl)OC
- growth inhibition (GI) (Brassica juncea): 100%
- growth inhibition (GI) (Digitaria sanguinalis [1]): 0%
- growth inhibition (GI) (Digitaria sanguinalis [2]): 0%
- growth inhibition (GI) (Digitaria sanguinalis [3]): 0%
- growth inhibition (GI) (Digitaria sanguinalis [4]): 0%
- growth inhibition (GI) (Chenopodium album [5]): 100%
- growth inhibition (GI) (Chenopodium album [6]): 99.5%
- growth inhibition (GI) (Chenopodium album [7]): 82.5%
- growth inhibition (GI) (Chenopodium album [8]): 52.5%
- growth inhibition (GI) (Chenopodium album [9]): 0%
- growth inhibition (GI) (Chenopodium album [10]): 0%
- growth inhibition (GI) (Amaranthus spinosus [11]): 97.5%
- growth inhibition (GI) (Amaranthus spinosus [12]): 92.5%
- growth inhibition (GI) (Amaranthus spinosus [13]): 62.5%
- pIC50 [14]: 4.71
- growth inhibition (GI) (Echinochloa crus-galli [15]): 0%
- growth inhibition (GI) (Abutilon theophrasti [16]): 82.5%
- growth inhibition (GI) (Abutilon theophrasti [17]): 47.5%
- growth inhibition (GI) (Abutilon theophrasti [18]): 0%
- growth inhibition (GI) (Abutilon theophrasti [19]): 0%
- pIC50 (Cucumis sativus [20]): 5.11
- growth inhibition (GI) (Medicago sativa [21]): 90%
- growth inhibition (GI) (Amaranthus retroflexus [22]): 90%
- growth inhibition (GI) [23]: 90%
- growth inhibition (GI) (Digitaria sanguinalis [24]): <=50%
- growth inhibition (GI) (Echinochloa crus-galli [25]): <=50%
- growth inhibition (GI) (Medicago sativa [26]): 75%
- growth inhibition (GI) (Amaranthus retroflexus [27]): 90%
- growth inhibition (GI) [28]: 90%
- growth inhibition (GI) (Digitaria sanguinalis [29]): 90%
- growth inhibition (GI) (Echinochloa crus-galli [30]): <=50%
- growth inhibition (GI) (Amaranthus spinosus [31]): 52.5%
- growth inhibition (GI) (Amaranthus spinosus [32]): 0%
- growth inhibition (GI) (Amaranthus spinosus [33]): 0%
- inhibition at 480 h [34]: 0%
- growth inhibition (GI) (Abutilon theophrasti [35]): 100%
- growth inhibition (GI) (Amaranthus retroflexus [36]): 97.5%
- pIC50 (Cucumis sativus [37]): 7.24
- growth inhibition (GI) (Abutilon theophrasti [38]): 99%
- growth inhibition (GI) (Setaria viridis [39]): 0%
- growth inhibition (GI) (Setaria viridis [40]): 0%
- growth inhibition (GI) (Setaria viridis [41]): 0%
- growth inhibition (GI) (Setaria viridis [42]): 5%
- growth inhibition (GI) (Setaria viridis [43]): 0%
- growth inhibition (GI) (Setaria viridis [44]): 0%
- growth inhibition (GI) (Digitaria sanguinalis [45]): 0%
- growth inhibition (GI) (Digitaria sanguinalis [46]): 0%
- growth inhibition (GI) (Pisum sativum): 87.5%
